Results on 16 compounds are retold here after patent US20250136578A1 (Kolm Therapeutics Inc., priority 2023, published 2025).

The subject of one assay is VCaP cells. As to the kind of experiment: VCaP growth inhibition assay (CTG). The format is cell-based. The note with it: Homo sapiens, 216 h, 30 pM R1881, 9 days. The procedure, abridged:
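VCaP cells in phenol red-free DMEM with 5% charcoal-stripped serum were stimulated with 30 pM R1881 (final) and treated with compound from 100 nM to 10 fM final (1:5 dilutions) for 9 days at 37 °C. Viability was read by CellTiter-Glo luminescence, and IC50 came from 4-parameter logistic fits.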

For another assay, the target named is AR / CBP ternary complex (Homo sapiens, UniProt P10275+Q92793). The experiment in a line: Ternary complex formation assay (sandwich ELISA, AR capture, CBP antibody detection) in VCaP cell lysates. The assay is classed as cell-based. The gist of the method:
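VCaP cells in 5% charcoal-stripped FBS were cultured ≥3 days and then given bifunctional compound for 1.5 h. Lysates went onto AR-antibody-coated plates. Bound CBP (or p300) was detected with a rabbit antibody plus HRP anti-rabbit, using QuantaRed chemifluorescence (ex 570/em 585) read immediately, at 5 min and at 15 min.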
In general terms: An ELISA detects its analyte on a solid surface through an enzyme-linked reagent.

Where [1] appears, read: treated 1.5 hours, rabbit CBP or p300 antibody detection, average, read-out: Average Ternary Complex.

Molecules are shown by their SMILES. Where two headings read alike, the source gives them in different places.

Chain of AR / CBP ternary complex (P10275 whole entry): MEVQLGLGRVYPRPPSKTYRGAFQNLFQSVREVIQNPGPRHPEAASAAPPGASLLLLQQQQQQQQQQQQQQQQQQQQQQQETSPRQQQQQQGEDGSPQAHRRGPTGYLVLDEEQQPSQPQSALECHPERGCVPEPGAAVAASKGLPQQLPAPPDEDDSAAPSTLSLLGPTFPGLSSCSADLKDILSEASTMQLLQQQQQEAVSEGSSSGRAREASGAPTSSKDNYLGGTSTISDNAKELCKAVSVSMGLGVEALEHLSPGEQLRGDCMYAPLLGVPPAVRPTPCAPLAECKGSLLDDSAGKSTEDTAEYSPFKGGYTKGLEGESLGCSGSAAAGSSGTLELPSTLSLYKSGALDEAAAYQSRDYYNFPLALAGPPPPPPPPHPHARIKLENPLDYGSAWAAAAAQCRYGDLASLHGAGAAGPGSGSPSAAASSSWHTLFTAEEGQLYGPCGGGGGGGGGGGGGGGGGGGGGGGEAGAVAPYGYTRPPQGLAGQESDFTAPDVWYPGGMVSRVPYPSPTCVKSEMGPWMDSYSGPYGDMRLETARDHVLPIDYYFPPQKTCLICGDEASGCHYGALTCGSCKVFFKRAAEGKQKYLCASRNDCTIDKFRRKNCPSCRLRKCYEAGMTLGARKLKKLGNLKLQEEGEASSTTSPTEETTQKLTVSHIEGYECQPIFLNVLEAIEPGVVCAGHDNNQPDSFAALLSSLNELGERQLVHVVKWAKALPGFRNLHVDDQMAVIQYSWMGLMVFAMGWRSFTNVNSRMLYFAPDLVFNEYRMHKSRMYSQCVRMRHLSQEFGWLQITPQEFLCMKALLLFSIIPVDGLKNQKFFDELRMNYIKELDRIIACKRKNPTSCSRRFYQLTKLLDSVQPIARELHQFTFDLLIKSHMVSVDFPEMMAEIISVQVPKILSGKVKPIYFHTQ
Chain of AR / CBP ternary complex (Q92793 2-2442): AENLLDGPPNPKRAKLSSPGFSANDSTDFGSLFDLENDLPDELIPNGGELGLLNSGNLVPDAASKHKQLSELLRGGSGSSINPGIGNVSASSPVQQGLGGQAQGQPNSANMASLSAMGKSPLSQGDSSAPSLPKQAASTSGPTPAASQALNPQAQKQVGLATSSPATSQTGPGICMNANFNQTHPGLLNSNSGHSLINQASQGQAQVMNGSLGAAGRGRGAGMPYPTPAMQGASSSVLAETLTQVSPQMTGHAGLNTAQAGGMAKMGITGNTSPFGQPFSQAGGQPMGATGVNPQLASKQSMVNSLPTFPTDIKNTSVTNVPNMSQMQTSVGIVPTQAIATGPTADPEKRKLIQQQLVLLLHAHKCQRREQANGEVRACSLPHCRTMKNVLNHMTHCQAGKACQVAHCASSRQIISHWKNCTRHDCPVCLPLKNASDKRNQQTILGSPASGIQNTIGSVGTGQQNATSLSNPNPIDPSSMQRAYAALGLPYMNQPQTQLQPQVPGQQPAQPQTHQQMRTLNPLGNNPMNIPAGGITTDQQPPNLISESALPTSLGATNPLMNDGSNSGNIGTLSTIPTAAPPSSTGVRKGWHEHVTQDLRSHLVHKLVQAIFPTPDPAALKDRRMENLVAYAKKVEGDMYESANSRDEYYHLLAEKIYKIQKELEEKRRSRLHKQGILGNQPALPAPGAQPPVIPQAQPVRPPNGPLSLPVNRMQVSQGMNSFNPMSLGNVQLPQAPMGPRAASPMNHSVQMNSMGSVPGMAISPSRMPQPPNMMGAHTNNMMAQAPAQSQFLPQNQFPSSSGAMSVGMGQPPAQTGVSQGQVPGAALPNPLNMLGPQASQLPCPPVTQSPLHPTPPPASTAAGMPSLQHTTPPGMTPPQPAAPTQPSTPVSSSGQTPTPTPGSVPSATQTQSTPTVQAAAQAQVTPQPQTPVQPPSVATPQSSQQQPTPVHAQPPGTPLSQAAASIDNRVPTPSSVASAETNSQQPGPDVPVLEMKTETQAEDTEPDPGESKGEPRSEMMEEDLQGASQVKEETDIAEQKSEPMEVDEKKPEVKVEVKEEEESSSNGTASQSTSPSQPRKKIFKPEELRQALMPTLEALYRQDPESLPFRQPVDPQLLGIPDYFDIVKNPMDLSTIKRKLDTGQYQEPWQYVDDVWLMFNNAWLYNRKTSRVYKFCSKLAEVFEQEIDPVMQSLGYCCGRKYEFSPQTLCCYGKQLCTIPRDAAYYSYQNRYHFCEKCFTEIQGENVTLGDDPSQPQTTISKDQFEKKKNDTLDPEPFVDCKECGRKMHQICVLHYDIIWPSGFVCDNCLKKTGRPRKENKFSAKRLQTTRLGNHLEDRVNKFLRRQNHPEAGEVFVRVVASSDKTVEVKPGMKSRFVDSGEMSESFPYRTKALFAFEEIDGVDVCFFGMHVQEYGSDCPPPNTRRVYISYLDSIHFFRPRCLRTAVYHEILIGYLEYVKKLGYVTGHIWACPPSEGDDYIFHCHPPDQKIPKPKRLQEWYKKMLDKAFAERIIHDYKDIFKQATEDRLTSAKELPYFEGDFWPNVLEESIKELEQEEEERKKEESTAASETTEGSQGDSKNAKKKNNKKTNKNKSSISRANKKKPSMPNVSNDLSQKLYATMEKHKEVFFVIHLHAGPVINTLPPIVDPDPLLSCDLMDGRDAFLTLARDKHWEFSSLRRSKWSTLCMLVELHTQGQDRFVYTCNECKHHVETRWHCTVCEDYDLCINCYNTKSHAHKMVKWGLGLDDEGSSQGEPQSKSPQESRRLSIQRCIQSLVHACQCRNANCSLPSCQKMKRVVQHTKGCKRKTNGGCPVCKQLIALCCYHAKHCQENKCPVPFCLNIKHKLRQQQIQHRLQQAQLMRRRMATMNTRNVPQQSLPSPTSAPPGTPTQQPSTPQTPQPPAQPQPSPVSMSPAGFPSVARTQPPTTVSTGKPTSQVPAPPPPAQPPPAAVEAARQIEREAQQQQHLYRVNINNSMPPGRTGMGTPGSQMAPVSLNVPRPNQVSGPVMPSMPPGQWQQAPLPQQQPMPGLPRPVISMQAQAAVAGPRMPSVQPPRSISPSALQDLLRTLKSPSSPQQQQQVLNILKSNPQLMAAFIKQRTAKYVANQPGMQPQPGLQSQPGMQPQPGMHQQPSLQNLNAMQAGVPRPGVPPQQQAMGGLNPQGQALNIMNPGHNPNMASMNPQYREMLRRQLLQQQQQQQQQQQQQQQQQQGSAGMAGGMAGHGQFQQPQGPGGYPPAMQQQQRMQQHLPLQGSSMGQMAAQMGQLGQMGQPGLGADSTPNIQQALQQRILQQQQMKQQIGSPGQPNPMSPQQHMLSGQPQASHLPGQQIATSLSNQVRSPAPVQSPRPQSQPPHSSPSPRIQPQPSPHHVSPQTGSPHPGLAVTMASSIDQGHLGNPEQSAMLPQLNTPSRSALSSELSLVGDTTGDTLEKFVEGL

Usually IC50 stands for the point on the concentration scale where inhibition reaches its midpoint. In turn, `CC(=O)N1CCc2c(c(-c3cccc4cc(-c5ccc(CCC6CC7(C6)CN(c6ccc(C(=O)N[C@H]8CC[C@H](Oc9ccc(C#N)c(Cl)c9)CC8)nn6)C7)nc5)ncc34)nn2C)C1` [Compound 51, 6-[6-[2-[5-[8-(5-acetyl-1-methyl-6,7-dihydro-4H-pyrazolo[4,3-c]pyridin-3-yl)-3-isoquinolyl]-2-pyridyl]ethyl]-2-azaspiro[3.3]heptan-2-yl]-N-[4-(3-chloro-4-cyano-phenoxy)cyclohexyl]pyridazine-3-carboxamide] registered an IC50 with VCaP cells of 0.1 to 1 nM. The EC50 at AR / CBP ternary complex (setting [1]) was under 1 nM.
Regarding `Cn1c(=O)n(C)c2cc(-c3cccc4cc(-c5ccc(CCC6CCN(c7ccc(C(=O)N[C@H]8CC[C@H](Oc9ccc(C#N)c(Cl)c9)CC8)nn7)CC6)nc5)ncc34)ccc21` [Compound 52, N-[4-(3-chloro-4-cyano-phenoxy)cyclohexyl]-6-[4-[2-[5-[8-(1,3-dimethyl-2-oxo-benzimidazol-5-yl)-3-isoquinolyl]-2-pyridyl]ethyl]-1-piperidyl]pyridazine-3-carboxamide], the IC50 with VCaP cells is over 100 nM. Besides, the EC50 on AR / CBP ternary complex (setting [1]) lay in the range of 1 to 10 nM.
`Cn1c(=O)n(C)c2cc(N3CCCc4cc(-c5ccc(CCC6CCN(c7ccc(C(=O)N[C@H]8CC[C@H](Oc9ccc(C#N)c(Cl)c9)CC8)nn7)CC6)nc5)c(C(F)F)cc43)ccc21` [Compound 53, N-[4-(3-chloro-4-cyano-phenoxy)cyclohexyl]-6-[4-[2-[5-[7-(difluoromethyl)-1-(1,3-dimethyl-2-oxo-benzimidazol-5-yl)-3,4-dihydro-2H-quinolin-6-yl]-2-pyridyl]ethyl]-1-piperidyl] pyridazine-3-carboxamide] had an IC50 in the assay on VCaP cells of over 100 nM. Further, the EC50 at AR / CBP ternary complex (read-out: Average Ternary Complex, treated 1.5 hours, rabbit CBP or p300 antibody detection) was under 1 nM.
Consider `Cn1c(=O)n(C)c2cc(N3CCCc4cc(-c5ccc(CCC6CCN(c7ccc(C(=O)N[C@H]8CC[C@H](Oc9ccc(C#N)c(Cl)c9)CC8)nn7)CC6)nc5)ncc43)ccc21` [Compound 54, N-[4-(3-chloro-4-cyano-phenoxy)cyclohexyl]-6-[4-[2-[5-[1-(1,3-dimethyl-2-oxo-benzimidazol-5-yl)-3,4-dihydro-2H-1,7-naphthyridin-6-yl]-2-pyridyl]ethyl]-1-piperidyl] pyridazine-3-carboxamide], for which the IC50 in the assay with VCaP cells lay within 0.1 to 1 nM. At AR / CBP ternary complex (setting [1]), the EC50 lay in the range of 1 to 10 nM.
With `Cn1c(=O)sc2ccc(-c3cccc4cc(-c5ccc(CCC6CCN(c7ccc(C(=O)N[C@H]8CC[C@H](Oc9ccc(C#N)c(Cl)c9)CC8)nn7)CC6)nc5)ncc34)cc21` [Compound 55, N-[4-(3-chloro-4-cyano-phenoxy)cyclohexyl]-6-[4-[2-[5-[8-(3-methyl-2-oxo-1,3-benzothiazol-5-yl)-3-isoquinolyl]-2-pyridyl]ethyl]-1-piperidyl]pyridazine-3-carboxamide], the IC50 in the assay on VCaP cells was over 100 nM. In addition, the EC50 on AR / CBP ternary complex (setting [1]) is under 1 nM.
In turn, `Cn1c(=O)sc2ccc(N3CCCc4cc(-c5ccc(CCC6CCN(c7ccc(C(=O)N[C@H]8CC[C@H](Oc9ccc(C#N)c(Cl)c9)CC8)nn7)CC6)nc5)c(C(F)F)cc43)cc21` [Compound 56, N-[4-(3-chloro-4-cyano-phenoxy)cyclohexyl]-6-[4-[2-[5-[7-(difluoromethyl)-1-(3-methyl-2-oxo-1,3-benzothiazol-5-yl)-3,4-dihydro-2H-quinolin-6-yl]-2-pyridyl]ethyl]-1-piperidyl]pyridazine-3-carboxamide] yielded an IC50 in the assay on VCaP cells of over 100 nM. Also, the EC50 on AR / CBP ternary complex (setting [1]) is 1 to 10 nM.
For the compound `Cn1c(=O)sc2ccc(N3CCCc4cc(-c5ccc(CCC6CCN(c7ccc(C(=O)N[C@H]8CC[C@H](Oc9ccc(C#N)c(Cl)c9)CC8)nn7)CC6)nc5)ncc43)cc21` [Compound 57, N-[4-(3-chloro-4-cyano-phenoxy)cyclohexyl]-6-[4-[2-[5-[1-(3-methyl-2-oxo-1,3-benzothiazol-5-yl)-3,4-dihydro-2H-1,7-naphthyridin-6-yl]-2-pyridyl]ethyl]-1-piperidyl]pyridazine-3-carboxamide], the IC50 with VCaP cells was in the range of 1 to 100 nM. On AR / CBP ternary complex (setting [1]), the EC50 is under 1 nM.
Consider `CN1C(=O)CCc2cc(-c3cccc4cc(-c5ccc(CCC6CCN(c7ccc(C(=O)N[C@H]8CC[C@H](Oc9ccc(C#N)c(Cl)c9)CC8)nn7)CC6)nc5)ncc34)ccc21` [Compound 58, N-[4-(3-chloro-4-cyano-phenoxy)cyclohexyl]-6-[4-[2-[5-[8-(1-methyl-2-oxo-3,4-dihydroquinolin-6-yl)-3-isoquinolyl]-2-pyridyl]ethyl]-1-piperidyl]pyridazine-3-carboxamide], for which the IC50 in the assay on VCaP cells is over 100 nM. At AR / CBP ternary complex (setting [1]), the EC50 is 10 to 100 nM.
Take `CN1C(=O)CCc2cc(N3CCCc4cc(-c5ccc(CCC6CCN(c7ccc(C(=O)N[C@H]8CC[C@H](Oc9ccc(C#N)c(Cl)c9)CC8)nn7)CC6)nc5)c(C(F)F)cc43)ccc21` [Compound 59, N-[4-(3-chloro-4-cyano-phenoxy)cyclohexyl]-6-[4-[2-[5-[7-(difluoromethyl)-1-(1-methyl-2-oxo-3,4-dihydroquinolin-6-yl)-3,4-dihydro-2H-quinolin-6-yl]-2-pyridyl]ethyl]-1-piperidyl]pyridazine-3-carboxamide]: the IC50 in the assay with VCaP cells is over 100 nM. The EC50 at AR / CBP ternary complex (setting [1]) was over 100 nM.
The compound `CN1C(=O)CCc2cc(N3CCCc4cc(-c5ccc(CCC6CCN(c7ccc(C(=O)N[C@H]8CC[C@H](Oc9ccc(C#N)c(Cl)c9)CC8)nn7)CC6)nc5)ncc43)ccc21` [Compound 60, N-[4-(3-chloro-4-cyano-phenoxy)cyclohexyl]-6-[4-[2-[5-[1-(1-methyl-2-oxo-3,4-dihydroquinolin-6-yl)-3,4-dihydro-2H-1,7-naphthyridin-6-yl]-2-pyridyl]ethyl]-1-piperidyl] pyridazine-3-carboxamide] displayed an IC50 in the assay on VCaP cells of over 100 nM. In addition, the EC50 on AR / CBP ternary complex (setting [1]) was over 100 nM.
In the assay on VCaP cells, `CC(=O)N1CCc2c(c(N3CCCc4cc(C#N)ccc43)nn2C2CCN(C(=O)C3CCN(c4ccc(C(=O)N[C@H]5CC[C@H](Oc6ccc(C#N)c(Cl)c6)CC5)nn4)CC3)CC2)C1` [Compound 61, 6-[4-[4-[5-acetyl-3-(6-cyano-3,4-dihydro-2H-quinolin-1-yl)-6,7-dihydro-4H-pyrazolo[4,3-c]pyridin-1-yl]piperidine-1-carbonyl]-1-piperidyl]-N-[4-(3-chloro-4-cyano-phenoxy)cyclohexyl]pyridazine-3-carboxamide] came in with an IC50 of at most 0.1 nM. Besides, the EC50 on AR / CBP ternary complex (setting [1]) is under 1 nM.
As to `CC(=O)N1CCc2c(c(N3CCCc4ccc(C(F)F)cc43)nn2C2CCN(C(=O)C3CCN(c4ccc(C(=O)N[C@H]5CC[C@H](Oc6ccc(C#N)c(Cl)c6)CC5)nn4)CC3)CC2)C1` [Compound 62, 6-[4-[4-[5-acetyl-3-[7-(difluoromethyl)-3,4-dihydro-2H-quinolin-1-yl]-6,7-dihydro-4H-pyrazolo[4,3-c]pyridin-1-yl]piperidine-1-carbonyl]-1-piperidyl]-N-[4-(3-chloro-4-cyano-phenoxy)cyclohexyl]pyridazine-3-carboxamide], the IC50 with VCaP cells is at most 0.1 nM. Besides, at AR / CBP ternary complex (setting [1]), the EC50 was under 1 nM.
On the same counts, the results for `CC(=O)N1CCc2c(c(-c3cccc4cc(-c5cnn(CCOC6CC7(C6)CN(c6ccc(C(=O)N[C@H]8CC[C@H](Oc9ccc(C#N)c(Cl)c9)CC8)nn6)C7)c5)ncc34)nn2C2CCOCC2)C1` [Compound 63, 6-[6-[2-[4-[8-(5-acetyl-1-tetrahydropyran-4-yl-6,7-dihydro-4H-pyrazolo[4,3-c]pyridin-3-yl)-3-isoquinolyl]pyrazol-1-yl]ethoxy]-2-azaspiro[3.3]heptan-2-yl]-N-[4-(3-chloro-4-cyano-phenoxy)cyclohexyl]pyridazine-3-carboxamide] are 0.1 to 1 nM and under 1 nM.
In the assay on VCaP cells, `CC(=O)N1CCc2c(c(-c3cccc4cc(-c5cnn(CCOC6CC7(C6)CN(c6ccc(C(=O)N[C@H]8CC[C@H](Oc9ccc(C#N)c(Cl)c9)CC8)nn6)C7)c5)ncc34)nn2C)C1` [Compound 64, 6-[6-[2-[4-[8-(5-acetyl-1-methyl-6,7-dihydro-4H-pyrazolo[4,3-c]pyridin-3-yl)-3-isoquinolyl]pyrazol-1-yl]ethoxy]-2-azaspiro[3.3]heptan-2-yl]-N-[4-(3-chloro-4-cyano-phenoxy)cyclohexyl]pyridazine-3-carboxamide] registered an IC50 of 0.1 to 1 nM. Moreover, the EC50 on AR / CBP ternary complex (setting [1]) lay within 1 to 10 nM.
Consider `CC(=O)N1CCc2c(c(-c3cccc4cc(-c5cnn(CCOC6CCN(c7ccc(C(=O)N[C@H]8CC[C@H](Oc9ccc(C#N)c(Cl)c9)CC8)nn7)CC6)c5)ncc34)nn2C)C1` [Compound 65, 6-[4-[2-[4-[8-(5-acetyl-1-methyl-6,7-dihydro-4H-pyrazolo[4,3-c]pyridin-3-yl)-3-isoquinolyl]pyrazol-1-yl]ethoxy]-1-piperidyl]-N-[4-(3-chloro-4-cyano-phenoxy)cyclohexyl]pyridazine-3-carboxamide], for which the IC50 in the assay with VCaP cells was at most 0.1 nM. In addition, on AR / CBP ternary complex (setting [1]), the EC50 is under 1 nM.
With `CC(=O)N1CCc2c(c(N3CCCc4cc(-c5cnn(C)c5)ncc43)nn2C2CCN(CC3CCN(c4ccc(C(=O)N[C@H]5CC[C@H](Oc6ccc(C#N)c(Cl)c6)CC5)nn4)CC3)CC2)C1` [Compound 66, rac-6-(4-((4-(5-acetyl-3-(6-(1-methyl-1H-pyrazol-4-yl)-3,4-dihydro-1,7-naphthyridin-1(2H)-yl)-4,5,6,7-tetrahydro-1H-pyrazolo[4,3-c]pyridin-1-yl)piperidin-1-yl)methyl)piperidin-1-yl)-N-((1r,4r)-4-(3-chloro-4-cyanophenoxy)cyclohexyl)pyridazine-3-carboxamide], the IC50 with VCaP cells is 0.1 to 1 nM. At AR / CBP ternary complex (setting [1]), the EC50 was under 1 nM.
